Results taken from ChEMBL document CHEMBL4680149, “Biological evaluation and chemoproteomics reveal potential antibacterial targets of a cajaninstilbene-acid analogue” (Eur J Med Chem, 2020).
In brackets after ≈: the same amount, converted by molar mass. Activity calls are given as the source filed them. No cut-off for these calls is given here.

Key:
Staphylococcus aureus [1] = experiment: Binding affinity to PgsA in Staphylococcus aureus ATCC 25923 assessed as protein labeling at 5 uM incubated for 1 hr followed by UV irradiation for 20 mins by pull down based in-gel fluorescence scanning analysis; conditions: time 80.0 min
Staphylococcus aureus [2] = experiment: Binding affinity to PgsA in methicillin resistant Staphylococcus aureus ATCC 43300 assessed as protein labeling at 5 uM incubated for 1 hr followed by UV irradiation for 20 mins by pull down based in-gel fluorescence scanning analysis; conditions: time 80.0 min
Staphylococcus aureus [3] = experiment: Binding affinity to moaB in methicillin resistant Staphylococcus aureus ATCC 43300 assessed as protein labeling at 5 uM incubated for 1 hr followed by UV irradiation for 20 mins by pull down based in-gel fluorescence scanning analysis; conditions: time 80.0 min
Staphylococcus aureus [4] = experiment: Binding affinity to moaB in Staphylococcus aureus ATCC 25923 assessed as protein labeling at 5 uM incubated for 1 hr followed by UV irradiation for 20 mins by pull down based in-gel fluorescence scanning analysis; conditions: time 80.0 min
Staphylococcus aureus [5] = experiment: Bacteriostatic activity against Staphylococcus aureus ATCC 25923 assessed as reduction in bacterial growth at 128 ug/ml incubated for 16 hrs by Kirby-Bauer test method; type: functional, organism-based; conditions: dose 128.0 µg/ml
Staphylococcus aureus [6] = experiment: Binding affinity to modA in Staphylococcus aureus ATCC 25923 assessed as protein labeling at 5 uM incubated for 1 hr followed by UV irradiation for 20 mins by pull down based in-gel fluorescence scanning analysis; conditions: time 80.0 min
Staphylococcus aureus [7] = experiment: Binding affinity to rpsH in Staphylococcus aureus ATCC 25923 assessed as protein labeling at 5 uM incubated for 1 hr followed by UV irradiation for 20 mins by pull down based in-gel fluorescence scanning analysis; conditions: time 80.0 min
Staphylococcus aureus [8] = experiment: Binding affinity to HsIU/ClpY in Staphylococcus aureus ATCC 25923 assessed as protein labeling at 5 uM incubated for 1 hr followed by UV irradiation for 20 mins by pull down based in-gel fluorescence scanning analysis; conditions: time 80.0 min
Staphylococcus aureus [9] = experiment: Binding affinity to HsIU/ClpY in methicillin resistant Staphylococcus aureus ATCC 43300 assessed as protein labeling at 5 uM incubated for 1 hr followed by UV irradiation for 20 mins by pull down based in-gel fluorescence scanning analysis; conditions: time 80.0 min
Staphylococcus aureus [10] = experiment: Binding affinity to CshA in Staphylococcus aureus ATCC 25923 assessed as protein labeling at 5 uM incubated for 1 hr followed by UV irradiation for 20 mins by pull down based in-gel fluorescence scanning analysis; conditions: time 80.0 min
Staphylococcus aureus [11] = experiment: Binding affinity to rpsH in methicillin resistant Staphylococcus aureus ATCC 43300 assessed as protein labeling at 5 uM incubated for 1 hr followed by UV irradiation for 20 mins by pull down based in-gel fluorescence scanning analysis; conditions: time 80.0 min
Staphylococcus aureus [12] = experiment: Binding affinity to YidC in methicillin resistant Staphylococcus aureus ATCC 43300 assessed as protein labeling at 5 uM incubated for 1 hr followed by UV irradiation for 20 mins by pull down based in-gel fluorescence scanning analysis; conditions: time 80.0 min
Staphylococcus aureus [13] = experiment: Binding affinity to YidC in Staphylococcus aureus ATCC 25923 assessed as protein labeling at 5 uM incubated for 1 hr followed by UV irradiation for 20 mins by pull down based in-gel fluorescence scanning analysis; conditions: time 80.0 min
Staphylococcus aureus [14] = experiment: Binding affinity to modA in methicillin resistant Staphylococcus aureus ATCC 43300 assessed as protein labeling at 5 uM incubated for 1 hr followed by UV irradiation for 20 mins by pull down based in-gel fluorescence scanning analysis; conditions: time 80.0 min
Staphylococcus aureus [15] = experiment: Binding affinity to CshA in methicillin resistant Staphylococcus aureus ATCC 43300 assessed as protein labeling at 5 uM incubated for 1 hr followed by UV irradiation for 20 mins by pull down based in-gel fluorescence scanning analysis; conditions: time 80.0 min
Staphylococcus aureus [16] = experiment: Antibacterial activity against methicillin resistant Staphylococcus aureus ATCC 43300 persisters assessed as eradication of colony formation at 2X MIC incubated for 4 hrs by colony counting method; type: functional, organism-based
RAW264.7 = experiment: Cytotoxicity against mouse RAW264.7 cells assessed as reduction in cell viability incubated for 48 hrs by MTT assay; type: cell-based; conditions: RAW264.7, 48 h
Staphylococcus aureus [17] = experiment: Antibacterial activity against methicillin resistant Staphylococcus aureus ATCC 43300 persisters assessed as reduction in colony formation at 40 ug/ml incubated for 8 hrs in presence of 50 ug/ml Ca2+ by colony counting method; type: functional, organism-based; conditions: dose 40.0 µg/ml
Staphylococcus aureus [18] = experiment: Antibacterial activity against methicillin resistant Staphylococcus aureus ATCC 43300 persisters assessed as reduction in colony formation at 40 ug/ml incubated for 8 hrs by colony counting method; type: functional, organism-based; conditions: dose 40.0 µg/ml
Staphylococcus aureus [19] = experiment: Resistance index, ratio of MIC for antibacterial activity against Staphylococcus aureus ATCC 25923 measured after 60 days of serial passage to MIC for antibacterial activity against Staphylococcus aureus ATCC25923 measured after 16 hrs; type: functional
Staphylococcus aureus [20] = experiment: Antibacterial activity against methicillin resistant Staphylococcus aureus ATCC 43300 persisters assessed as reduction in colony formation at 4 ug/ml incubated for 8 hrs by colony counting method; type: functional, organism-based; conditions: dose 4.0 µg/ml
Staphylococcus aureus [21] = experiment: Binding affinity to CshA in methicillin resistant Staphylococcus aureus ATCC 43300 assessed as protein labeling at 5 uM incubated for 1 hr in presence of (E)-6-(2-fluorostyryl)-2,4-dihydroxy-3-(3-methylbut-2-enyl)benzoic acid followed by UV irradiation for 20 mins by pull down based in-gel fluorescence scanning analysis; conditions: time 80.0 min
Staphylococcus aureus [22] = experiment: Binding affinity to HsIU/ClpY in methicillin resistant Staphylococcus aureus ATCC 43300 assessed as protein labeling at 5 uM incubated for 1 hr in presence of (E)-6-(2-fluorostyryl)-2,4-dihydroxy-3-(3-methylbut-2-enyl)benzoic acid followed by UV irradiation for 20 mins by pull down based in-gel fluorescence scanning analysis; conditions: time 80.0 min
Staphylococcus aureus [23] = experiment: Binding affinity to PgsA in methicillin resistant Staphylococcus aureus ATCC 43300 assessed as protein labeling at 5 uM incubated for 1 hr in presence of (E)-6-(2-fluorostyryl)-2,4-dihydroxy-3-(3-methylbut-2-enyl)benzoic acid followed by UV irradiation for 20 mins by pull down based in-gel fluorescence scanning analysis; conditions: time 80.0 min
Staphylococcus aureus [24] = experiment: Antibacterial activity against Staphylococcus aureus ATCC 25923 assessed as reduction in bacterial growth incubated for 16 hrs by broth microdilution method; type: functional
Staphylococcus aureus [25] = experiment: Binding affinity to moaB in Staphylococcus aureus ATCC 25923 assessed as protein labeling at 5 uM incubated for 1 hr in presence of (E)-6-(2-fluorostyryl)-2,4-dihydroxy-3-(3-methylbut-2-enyl)benzoic acid followed by UV irradiation for 20 mins by pull down based in-gel fluorescence scanning analysis; conditions: time 80.0 min
Staphylococcus aureus [26] = experiment: Binding affinity to moaB in methicillin resistant Staphylococcus aureus ATCC 43300 assessed as protein labeling at 5 uM incubated for 1 hr in presence of (E)-6-(2-fluorostyryl)-2,4-dihydroxy-3-(3-methylbut-2-enyl)benzoic acid followed by UV irradiation for 20 mins by pull down based in-gel fluorescence scanning analysis; conditions: time 80.0 min
Staphylococcus aureus [27] = experiment: Binding affinity to modA in methicillin resistant Staphylococcus aureus ATCC 43300 assessed as protein labeling at 5 uM incubated for 1 hr in presence of (E)-6-(2-fluorostyryl)-2,4-dihydroxy-3-(3-methylbut-2-enyl)benzoic acid followed by UV irradiation for 20 mins by pull down based in-gel fluorescence scanning analysis; conditions: time 80.0 min
Staphylococcus aureus [28] = experiment: Binding affinity to rpsH in methicillin resistant Staphylococcus aureus ATCC 43300 assessed as protein labeling at 5 uM incubated for 1 hr in presence of (E)-6-(2-fluorostyryl)-2,4-dihydroxy-3-(3-methylbut-2-enyl)benzoic acid followed by UV irradiation for 20 mins by pull down based in-gel fluorescence scanning analysis; conditions: time 80.0 min
Staphylococcus aureus [29] = experiment: Binding affinity to PgsA in Staphylococcus aureus ATCC 25923 assessed as protein labeling at 5 uM incubated for 1 hr in presence of (E)-6-(2-fluorostyryl)-2,4-dihydroxy-3-(3-methylbut-2-enyl)benzoic acid followed by UV irradiation for 20 mins by pull down based in-gel fluorescence scanning analysis; conditions: time 80.0 min
Staphylococcus aureus [30] = experiment: Binding affinity to His-tagged recombinant Staphylococcus aureus PgsA expressed in Escherichia coli Rosetta DE3 at 5 uM incubated for 1 hr in presence of (E)-6-(2-fluorostyryl)-2,4-dihydroxy-3-(3-methylbut-2-enyl)benzoic acid followed by UV irradiation for 20 mins by in-gel fluorescence scanning analysis; conditions: time 80.0 min
Staphylococcus aureus [31] = experiment: Binding affinity to YidC in Staphylococcus aureus ATCC 25923 assessed as protein labeling at 5 uM incubated for 1 hr in presence of (E)-6-(2-fluorostyryl)-2,4-dihydroxy-3-(3-methylbut-2-enyl)benzoic acid followed by UV irradiation for 20 mins by pull down based in-gel fluorescence scanning analysis; conditions: time 80.0 min
Staphylococcus aureus [32] = experiment: Bacteriostatic activity against Staphylococcus aureus ATCC 25923 assessed as reduction in bacterial growth at 4 ug/ml incubated for 16 hrs by Kirby-Bauer test method; type: functional, organism-based; conditions: dose 4.0 µg/ml
Staphylococcus aureus [33] = experiment: Binding affinity to CshA in Staphylococcus aureus ATCC 25923 assessed as protein labeling at 5 uM incubated for 1 hr in presence of (E)-6-(2-fluorostyryl)-2,4-dihydroxy-3-(3-methylbut-2-enyl)benzoic acid followed by UV irradiation for 20 mins by pull down based in-gel fluorescence scanning analysis; conditions: time 80.0 min
Staphylococcus aureus [34] = experiment: Binding affinity to YidC in methicillin resistant Staphylococcus aureus ATCC 43300 assessed as protein labeling at 5 uM incubated for 1 hr in presence of (E)-6-(2-fluorostyryl)-2,4-dihydroxy-3-(3-methylbut-2-enyl)benzoic acid followed by UV irradiation for 20 mins by pull down based in-gel fluorescence scanning analysis; conditions: time 80.0 min
Staphylococcus aureus [35] = experiment: Binding affinity to modA in Staphylococcus aureus ATCC 25923 assessed as protein labeling at 5 uM incubated for 1 hr in presence of (E)-6-(2-fluorostyryl)-2,4-dihydroxy-3-(3-methylbut-2-enyl)benzoic acid followed by UV irradiation for 20 mins by pull down based in-gel fluorescence scanning analysis; conditions: time 80.0 min
Staphylococcus aureus [36] = experiment: Binding affinity to HsIU/ClpY in Staphylococcus aureus ATCC 25923 assessed as protein labeling at 5 uM incubated for 1 hr in presence of (E)-6-(2-fluorostyryl)-2,4-dihydroxy-3-(3-methylbut-2-enyl)benzoic acid followed by UV irradiation for 20 mins by pull down based in-gel fluorescence scanning analysis; conditions: time 80.0 min
Staphylococcus aureus [37] = experiment: Binding affinity to rpsH in Staphylococcus aureus ATCC 25923 assessed as protein labeling at 5 uM incubated for 1 hr in presence of (E)-6-(2-fluorostyryl)-2,4-dihydroxy-3-(3-methylbut-2-enyl)benzoic acid followed by UV irradiation for 20 mins by pull down based in-gel fluorescence scanning analysis; conditions: time 80.0 min

| Compound | Activity (Staphylococcus aureus [1]) | Activity (Staphylococcus aureus [2]) | Activity (Staphylococcus aureus [3]) | Activity (Staphylococcus aureus [4]) | Activity (Staphylococcus aureus [6]) | Activity (Staphylococcus aureus [7]) | Activity (Staphylococcus aureus [8]) | Activity (Staphylococcus aureus [9]) | Activity (Staphylococcus aureus [10]) | Activity (Staphylococcus aureus [11]) | Activity (Staphylococcus aureus [12]) | Activity (Staphylococcus aureus [13]) | Activity (Staphylococcus aureus [14]) | Activity (Staphylococcus aureus [15]) | further results |
| --- | --- | --- | --- | --- | --- | --- | --- | --- | --- | --- | --- | --- | --- | --- | --- |
| C#CCCC1(CCOc2ccccc2)N=N1 | inactive | inactive | inactive | inactive | inactive | inactive | inactive | inactive | inactive | inactive | inactive | inactive | inactive | inactive | Activity (Staphylococcus aureus [5]): inactive |
| COc1cc(/C=C/c2ccc(C(F)(F)F)cc2)c(C(=O)O)c(O)c1CC=C(C)C |  |  |  |  |  |  |  |  |  |  |  |  |  |  | Activity (Staphylococcus aureus [16]): Active; IC50 (RAW264.7): 50.6 µM |
| CCCCCCCCCC(=O)N[C@@H](Cc1c[nH]c2ccccc12)C(=O)N[C@H](CC(N)=O)C(=O)N[C@@H](CC(=O)O)C(=O)N[C@@H]1C(=O)NCC(=O)N[C@@H](CCCN)C(=O)N[C@@H](CC(=O)O)C(=O)N[C@H](C)C(=O)N[C@@H](CC(=O)O)C(=O)NCC(=O)N[C@H](CO)C(=O)N[C@@H]([C@H](C)CC(=O)O)C(=O)N[C@@H](CC(=O)c2ccccc2N)C(=O)O[C@@H]1C |  |  |  |  |  |  |  |  |  |  |  |  |  |  | Activity (Staphylococcus aureus [17]): Active |
| O=C(O)c1cn(C2CC2)c2cc(N3CCNCC3)c(F)cc2c1=O [CIPROFLOXACIN] |  |  |  |  |  |  |  |  |  |  |  |  |  |  | Activity (Staphylococcus aureus [18]): Active; Ratio (Staphylococcus aureus [19]): 50 |
| CO[C@H]1/C=C/O[C@@]2(C)Oc3c(C)c(O)c4c(O)c(c(/C=N/N5CCN(C)CC5)c(O)c4c3C2=O)NC(=O)/C(C)=C\C=C\[C@H](C)[C@H](O)[C@@H](C)[C@@H](O)[C@@H](C)[C@H](OC(C)=O)[C@@H]1C |  |  |  |  |  |  |  |  |  |  |  |  |  |  | Activity (Staphylococcus aureus [20]): Active |
| C#CCCC1(CCOc2ccc(/C=C/c3cc(OC)c(CC=C(C)C)c(O)c3C(=O)O)c(F)c2)N=N1 | Active | Active | Active | Active | Active | Active | Active | Active | Active | Active | Active | Active | Active | Active | Activity (Staphylococcus aureus [21]): inactive; Activity (Staphylococcus aureus [22]): inactive; Activity (Staphylococcus aureus [23]): inactive; MIC (Staphylococcus aureus [24]): 8 µg/mL (≈ 16.2 µM); Activity (Staphylococcus aureus [25]): inactive; Activity (Staphylococcus aureus [26]): inactive; Activity (Staphylococcus aureus [27]): inactive; Activity (Staphylococcus aureus [28]): inactive; Activity (Staphylococcus aureus [29]): inactive; Activity (Staphylococcus aureus [30]): inactive; Activity (Staphylococcus aureus [31]): inactive; Activity (Staphylococcus aureus [32]): Active; Activity (Staphylococcus aureus [33]): inactive; Activity (Staphylococcus aureus [34]): inactive; Activity (Staphylococcus aureus [35]): inactive; Activity (Staphylococcus aureus [36]): inactive; Activity (Staphylococcus aureus [37]): inactive |
